Literature values in article PMC10541456, “A phase I, single‐center, open‐label study to investigate the absorption, distribution, metabolism and excretion of encorafenib following a single oral dose of 100 mg [ ^14C] encorafenib in healthy male subjects” (Pharmacology Research & Perspectives, 2023).

Tests used:
[1] = set-up: method as in data on file; conditions: in vitro study; ref data on file; cited from earlier work
CYP2C19 = system: CYP2C19; set-up: method as in earlier work; conditions: cited from earlier work

## COC(=O)N[C@@H](C)CNc1nccc(-c2cn(C(C)C)nc2-c2cc(Cl)cc(NS(C)(=O)=O)c2F)n1 [encorafenib]
[1]
  [blood]/[plasma] in vitro: 0.75 ± 0.21
CYP2C19
  Contribution of CYP2C19 to metabolism: 16%
